In patent US7968552B2, “Oxadiazolidinedione compound” (Astellas Pharma Inc., priority 2006, dated 2011):
pEC50: −log10 of the molar value.

Experiments:
[1] = molecular target: T1, human GPR40 (Homo sapiens, UniProt O14842, R211H); assay: Measurement of GPR40 agonist action (FLIPR, intracellular calcium); type: cell-based; conditions: CHO cell strain expressing human GPR40; changes in fluorescence intensity after 1 minute of the measurement
T1 construct: expressed in transfected cells
From the text: Test Method 1: Measurement of GPR40 Agonist Action […]
i) Cloning of Human GPR40
Complete length sequence of GPR40 was obtained by carrying out a PCR method in accordance with the procedure shown below using a human genomic DNA (Clontech) as the template.
An oligonucleotide consisting of the nucleotide sequence represented by SEQ ID NO:1 was used as the forward primer, and an oligonucleotide consisting of the nucleotide sequence represented by SEQ ID NO:2 as the reverse primer. In this connection, a nucleotide sequence comprising a XbaI recognition region is added to the respective 5′-termini of the aforementioned forward primer and reverse primer. PCR was carried out in the presence of 5% dimethyl sulfoxide (DMSO) using a Taq DNA polymerase (Ex Taq DNA polymerase; Takara Bio), by repeating 30 times of a cycle consisting of 94° C. (15 seconds)/55° C. (30 seconds)/72° C. (1 minute). As a result, a DNA fragment of about 0.9 kbp was amplified. This DNA fragment was digested with XbaI and then inserted into the XbaI site of a plasmid pEF-BOS-dhfr (Nucleic acids Research, 18, 5322, 1990), thereby obtaining a plasmid pEF-BOS-dhfr-GPR40.
Nucleotide sequence of the GPR40 gene in the pEF-BOS-dhfr-GPR40 was determined by the dideoxy terminator method using a DNA sequencer (ABI 377 DNA Sequencer, Applied Biosystems). Nucleotide sequence of the GPR40 gene was as the nucleotide sequence represented by SEQ ID NO:3. The nucleotide sequence represented by SEQ ID NO:3 has an open reading frame (ORF) of 903 bases, and the amino acid sequence deduced from this ORF (300 amino acids) was as the amino acid sequence represented by SEQ ID NO:4. […]
ii) Preparation of GPR40 Stable Expression Cell
As the cell for expressing GPR protein, CHO dhfr cell (a dihydrofolate reductase (dhfr)-deficient CHO cell) was used. Also, as the plasmid for expressing GPR40 protein, the plasmid pEF-BOS-dhfr-GPR40 obtained in the aforementioned i) was used. The CHO dhfr cell was inoculated into αMEM medium containing 10% fetal calf serum (FCS) using a 6 well plate (Asahi Techno Glass) and cultured overnight to an 80 to 90% confluence, and then 2 μg per well of the plasmid pEF-BOS-dhfr-GPR40 was gene-transferred using a transfection reagent (Lipofectamine 2000; Invitrogen). After 24 hours of culturing from the gene transfer, the cells were diluted and inoculated again. […] After 20 days of culturing, the thus formed colonies of cells were individually recovered and cultured to obtain CHO cells stably expressing GPR40. From these, cells having high reactivity for intrinsic ligands oleic acid and linoleic acid were selected. […]
iii) Measurement of GPR40 Agonist Action
This test was measured by FLIPR (registered trademark, Molecular Device) using a change in intracellular calcium concentration as the index. The test method is shown in the following.
A CHO cell strain in which human GPR40 was expressed was inoculated into a 384 well black plate (Becton Dickinson) in 6×10^3 cells per well portions and cultured overnight in a CO2 incubator.
Using Calcium-3 assay kit (Molecular Device), one bottle of the phosphorescent pigment was dissolved in 10 ml of HBSS-HBEPES buffer (pH 7.4, 1×HBSS, 20 mM HEPES, Invitrogen). A 35.68 mg of probenecid (Sigma) was dissolved in 250 μl of 1M NaOH and adjusted by adding 250 μl of the HBSS-HEPES buffer. A phosphorescent pigment solution was prepared by mixing 16 ml of HBSS-HEPES buffer, 640 μl of the phosphorescent pigment and 32 μl of probenecid per one plate. The medium was discarded from the plate, and the phosphorescent pigment solution was dispensed in 40 μl per well portions and then incubated at room temperature for 2 hours. Each compound to be tested was dissolved in DMSO and then diluted with HBSS-HEPES buffer and dispensed in 10 μl portions into the plate, thereby starting the reaction, and changes in the intracellular calcium concentration were measured by FLIPR. […]

[2] = system: MIN6 cell; assay: Insulin secretion-promoting action using MIN6 cell; design: species or system mouse; conditions: relative activity value at 1 μM of each compound, based on 100% control (DMSO), 2 hours incubation
Method: Test Method 2: Insulin Secretion-Promoting Action Using MIN6 Cell
This rest examined insulin acceleration action of compounds to be tested using a mouse pancreas β cell strain, MIN6 cell. The test method is shown in the following.
The MIN6 cell was dispensed in 5×10^4 cells/well (200 μl) portions into a 96 well plate. DMEM (25 mM glucose) containing 10% FBS, 55 μM 2-mercaptoethanol, 100 U/ml penicillin and 100 μg/ml streptomycin was used as the medium. The medium was discarded 2 days thereafter using an aspirator, followed by washing once with 200 μl of KRB-HEPES (116 mM NaCl, 4.7 mM KCl, 1.2 mM KH2PO4, 1.2 mM MgSO4, 0.25 mM CaCl2, 25 mM NaHCO3, 0.005% FFA Free BSA, 24 mM HEPES (pH 7.4)) containing 2.8 mM glucose, which was warmed up to 37° C., and subsequent incubation again at 37° C. for 1 hour by adding 200 μl of the same buffer. After discarding the above-mentioned buffer using an aspirator and again washing with the buffer (200 μl), a predetermined concentration of a compound to be tested was added to the KRB-HEPES containing 2.8 mM or 22.4 mM glucose and added to respective wells in 100 μl portions and incubated at 37° C. for 2 hours. The above-mentioned samples were fractioned and diluted 100 times, and the insulin concentration was determined using an insulin RIA kit (Amersham RI). The activity value was shown by a relative activity value (%) at the time of 1 μM of each compound, based on 100% control (DMSO).

[3] = system: blood glucose after glucose loading; assay: Normal mice single oral glucose tolerance test; type: in vivo; conditions: Mus musculus, 0.5 h, male ICR mice, 10 mg/kg orally 30 minutes before glucose loading (2 g/kg), 30 minutes after glucose loading, based on control group, read-out: Blood glucose lowering ratio
Method: Test Method 3: Normal Mice Single Oral Glucose Tolerance Test
This test examined on the blood glucose suppression action of compounds to be tested after glucose loading, using normal mice. The test method is shown below.
Male ICR mice (6 weeks of age) after 1 week of preliminary rearing were subjected to overnight fasting and used as the animals to be tested. Each compound to be tested was made into a 0.5% methyl cellulose suspension and orally administered at a dose of 10 mg/kg 30 minutes before the glucose loading (2 g/kg). Administration of 0.5% methyl cellulose was used in the control group. Blood glucose lowering ratio (%) after 30 minutes of glucose loading was calculated based on the control group.

T1 sequence (O14842 whole entry R211H): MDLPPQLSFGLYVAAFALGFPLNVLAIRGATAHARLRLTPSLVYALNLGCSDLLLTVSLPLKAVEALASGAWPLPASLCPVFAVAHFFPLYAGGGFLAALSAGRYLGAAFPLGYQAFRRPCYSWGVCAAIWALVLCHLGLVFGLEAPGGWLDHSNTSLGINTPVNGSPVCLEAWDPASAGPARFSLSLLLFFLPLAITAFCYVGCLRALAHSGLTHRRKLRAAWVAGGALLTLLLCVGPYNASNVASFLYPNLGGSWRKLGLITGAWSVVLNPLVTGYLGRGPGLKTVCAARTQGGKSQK

Row | SMILES | pEC50 [1] | Insulin secretion-accelerating action [2] [%] | inhibition in vivo at 10 mg/kg [3] [%]
1 | COc1cc(F)c(-c2cccc(COc3ccc(Cn4oc(=O)[n-]c4=O)cc3)c2)c(F)c1.[Na+] [Example 4, sodium 2-{4-[(2′,6′-difluoro-4′-methoxybiphenyl-3-yl)methoxy]benzyl}-3,5-dioxo-1,2,4-oxadiazolidin-4-ide] | 6.46 | 177 | –
2 | O=c1[nH]c(=O)n(Cc2ccc(OCc3cccc(-c4ccc(OCCO)cc4)c3)cc2)o1 [Example 8] | 7.51 | – | –
3 | O=c1[nH]c(=O)n(Cc2ccc(OCc3cccc(Br)c3)cc2)o1 [Example 9, 2-{4-[(3-bromobenzyl)oxy]benzyl}-1,2,4-oxadiazolidine-3,5-dione] | 6.10 | – | –
4 | Cc1cc(OCCO)ccc1-c1cccc(COc2ccc(Cn3oc(=O)[nH]c3=O)cc2)c1 [Example 14, sodium 2-(4-{[4′-(2-hydroxyethoxy)-2′-methylbiphenyl-3-yl]methoxy}benzyl)-3,5-dioxo-1,2,4-oxadiazolidin-4-ide] | 6.41 | – | 34
5 | Cc1cccc(C)c1-c1cccc(C(=O)Nc2ccc(Cn3oc(=O)[nH]c3=O)cc2)c1 [Example 16, sodium 2-(4-{[(2′,6′-dimethylbiphenyl-3-yl)carbonyl]amino}benzyl)-3,5-dioxo-1,2,4-oxadiazolidin-4-ide] | 6.35 | – | –
6 | O=c1[nH]c(=O)n(Cc2ccc(OCc3cccc(-c4cccnc4)c3)cc2)o1 [Example 33] | 6.19 | – | –
7 | N#Cc1ccc(-c2cccc(COc3ccc(Cn4oc(=O)[nH]c4=O)cc3)c2)cc1 [Example 34] | – | 169 | –
8 | O=c1[n-]c(=O)n(Cc2ccc(OCc3cccc(Oc4ccccc4)c3)cc2)o1.[Na+] [Example 38] | 6.19 | 228 | –
9 | Cc1cccc(C)c1-c1cccc(COc2ccc(Cn3oc(=O)[n-]c3=O)cc2)c1.[Na+] [Example 39] | 6.59 | 192 | 26
10 | CCOCCOc1cc(C)c(-c2cccc(COc3ccc(Cn4oc(=O)[n-]c4=O)cc3)c2)c(C)c1.[Na+] [Example 44] | 6.17 | 287 | 21
11 | COc1cc(C)c(-c2cccc(COc3ccc(Cn4oc(=O)[nH]c4=O)cc3)c2)c(C)c1 [Example 47] | 6.38 | – | 36
12 | COc1cccc(OC)c1-c1cccc(COc2ccc(Cn3oc(=O)[nH]c3=O)cc2)c1 [Example 56] | 6.12 | – | 31
13 | O=c1[nH]c(=O)n(Cc2ccc(OCc3cccc(-c4c(Cl)cccc4Cl)c3)cc2)o1 [Example 60] | 6.34 | – | 35
14 | Cc1cccc(C)c1-c1cncc(COc2ccc(Cn3oc(=O)[nH]c3=O)cc2)c1 [Example 82] | 6.03 | – | –
15 | Cc1cccc(C)c1-c1cccc(COc2ccc(Cn3oc(=O)[nH]c3=O)cn2)c1 [Example 99] | 6.35 | – | –
16 | Cc1cc(C(=O)NC2CCOCC2)ccc1-c1cccc(COc2ccc(Cn3oc(=O)[nH]c3=O)cc2)c1 [Example 117] | 6.54 | – | 21
17 | Cc1cc(OS(C)(=O)=O)cc(C)c1-c1cccc(COc2ccc(Cn3oc(=O)[nH]c3=O)cc2)c1 [Example 119] | 6.66 | – | 22
18 | Cc1cc(OCCC(C)(C)O)cc(C)c1-c1cccc(COc2ccc(Cn3oc(=O)[nH]c3=O)cc2)c1C [Example 166] | 6.66 | – | 35
19 | Cc1cc(OCC[C@H](C)O)ccc1-c1cccc(COc2ccc(Cn3oc(=O)[nH]c3=O)cc2)c1C [Example 173] | 6.18 | – | 21
20 | CC(=O)NCCCOc1ccc(-c2cccc(COc3ccc(Cn4oc(=O)[nH]c4=O)cc3)c2C)c(C)c1 [Example 189] | 7.23 | – | 30
21 | Cc1cc(OCC[C@H](C)O)cc(C)c1-c1cccc(COc2ccc(Cn3oc(=O)[nH]c3=O)cc2)c1C [Example 193] | 6.28 | – | 46
22 | Cc1cccc(C)c1-c1cccc(CNc2ccc(Cn3oc(=O)[nH]c3=O)cc2)c1 [Example 406] | 6.92 | – | 42
